Assay results published in US9809574B2, “Isoindoline or isoquinoline compounds, a process for their preparation and pharmaceutical compositions containing them” (LES LABORATOIRES SERVIER, priority 2013, dated 2017).
Counter-ions that a name gives are not always drawn.

Assays:
Bcl-2 protein = Bcl-2 protein (histag-Bcl-2, UniProtKB P10415) (Homo sapiens (Human), UniProt P10415); experiment: Inhibition of Bcl-2 by the fluorescence polarisation technique; format: binding; details: for IC50: fluorescence polarisation test, incubation for 2 hours, read-out: IC50 (nM) Bcl-2 FP
Source text: For partial inhibitors, the percentage fluorescence polarisation inhibition for a given concentration of the test compound is indicated.

[1] = system: RS4; 11 leukaemia cell line; experiment: In vitro cytotoxicity, Microculture Tetrazolium Assay (MTT); format: cell-based; details: Homo sapiens, 11 cells exposed for 48 hours
Method: The cytotoxicity studies were carried out on the RS4; 11 leukaemia cell line and on H146 small Cell Lung Carcinoma cell line. The cells are distributed onto microplates and exposed to the test compounds for 48 hours. The cell viability is then quantified by a colorimetric assay, the Microculture Tetrazolium Assay (Cancer Res., 1987, 47, 939-942).

Sequence of Bcl-2 protein (P10415 whole entry): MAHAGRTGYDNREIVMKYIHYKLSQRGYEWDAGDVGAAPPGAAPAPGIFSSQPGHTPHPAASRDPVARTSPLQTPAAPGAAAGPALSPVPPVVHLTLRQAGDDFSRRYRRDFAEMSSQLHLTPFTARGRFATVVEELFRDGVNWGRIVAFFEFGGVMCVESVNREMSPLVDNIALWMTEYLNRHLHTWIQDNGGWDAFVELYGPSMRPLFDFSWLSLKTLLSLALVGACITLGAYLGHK

SMILES: Cc1c(C(=O)N(C)c2ccccc2)cc(-c2cc3c(cc2C(=O)N2Cc4ccccc4C[C@H]2CN2CCOCC2)CN(C(=O)Oc2ccccc2)CC3)n1C [Example 115, Phenyl 6-{1,5-dimethyl-4-[methyl(phenyl)carbamoyl]-1H-pyrrol-2-yl}-7-[(3S)-3-(morpholin-4-ylmethyl)-1,2,3,4-tetrahydroisoquinoline-2-carbonyl]-1,2,3,4-tetrahydroisoquinoline-2-carboxylate]
- IC50 (Bcl-2 protein): 3.4 nM
- IC50 [1]: 24 nM

SMILES: C[C@@H]1Cc2ccccc2CN1C(=O)c1cc2c(cc1-c1cc(C(=O)N(C)c3ccc(O)cc3)c3n1CCCC3)CCN(C(=O)Cc1ccc(N3CCN(C)CC3)cc1)C2 [Example 97, N-(4-Hydroxyphenyl)-N-methyl-3-{7-[(3R)-3-methyl-1,2,3,4-tetrahydroisoquinoline-2-carbonyl]-2-{2-[4-(4-methylpiperazin-1-yl)phenyl]acetyl}-1,2,3,4-tetrahydroisoquinolin-6-yl}-5,6,7,8-tetrahydroindolizine-1-carboxamide]
- IC50 (Bcl-2 protein): 4.9 nM
- IC50 [1]: 15 nM

SMILES: C[C@@H]1Cc2ccccc2CN1C(=O)c1cc2c(cc1-c1cc(C(=O)N(C)c3ccc(O)cc3)c3n1CCCC3)CN(C(=O)CSc1ccccc1)C2 [Example 171, N-(4-Hydroxyphenyl)-N-methyl-3-{6-[(3R)-3-methyl-1,2,3,4-tetrahydroisoquinoline-2-carbonyl]-2-[2-(phenylsulfanyl)acetyl]-2,3-dihydro-1H-isoindol-5-yl}-5,6,7,8-tetrahydroindolizine-1-carboxamide]
- IC50 (Bcl-2 protein): 5.1 nM
- IC50 [1]: 63 nM

SMILES: Cc1c(C(=O)N(C)c2ccc(O)cc2)cc(-c2cc3c(cc2C(=O)N2Cc4ccccc4C[C@H]2CCN2CCOCC2)CN(C(=O)OC2CCCCC2)CC3)n1C [Example 807, Cyclohexyl 6-{4-[(4-hydroxyphenyl)(methyl)carbamoyl]-1,5-dimethyl-1H-pyrrol-2-yl}-7-[(3S)-3-[2-(morpholin-4-yl)ethyl]-1,2,3,4-tetrahydroisoquinoline-2-carbonyl]-1,2,3,4-tetrahydroisoquinoline-2-carboxylate]
- IC50 (Bcl-2 protein): 3.9 nM
- IC50 [1]: 26 nM

SMILES: COc1cccc(CCC(=O)N2CCc3cc(-c4cc(C(=O)N(C)c5ccc(O)cc5)c(C)n4C)c(C(=O)N4Cc5ccccc5C[C@H]4CN4CCOCC4)cc3C2)c1 [Example 135, N-(4-Hydroxyphenyl)-5-{2-[3-(3-methoxyphenyl)propanoyl]-7-[(3S)-3-(morpholin-4-ylmethyl)-1,2,3,4-tetrahydroisoquinoline-2-carbonyl]-1,2,3,4-tetrahydroisoquinolin-6-yl}-N,1,2-trimethyl-1H-pyrrole-3-carboxamide]
- IC50 (Bcl-2 protein): 8.4 nM
- IC50 [1]: 99 nM

SMILES: Cc1c(C(=O)N(C)c2ccc(O)cc2)cc(-c2cc3c(cc2C(=O)N2Cc4ccccc4C[C@H]2C)CN(C(=O)Oc2ccccc2CCC(=O)N(C)C)CC3)n1C [Example 775, 2-[2-(Dimethylcarbamoyl)ethyl]phenyl 6-{4-[(4-hydroxyphenyl)(methyl)carbamoyl]-1,5-dimethyl-1H-pyrrol-2-yl}-7-[(3R)-3-methyl-1,2,3,4-tetrahydroisoquinoline-2-carbonyl]-1,2,3,4-tetrahydroisoquinoline-2-carboxylate]
- IC50 (Bcl-2 protein): 2.4 nM
- IC50 [1]: 6.3 nM

SMILES: C[C@@H]1Cc2ccccc2CN1C(=O)c1cc2c(cc1-c1cc(C(=O)N(c3ccccc3)c3ccc(O)cc3)c3n1CCCC3)CN(C(=O)Oc1ccccc1)C2 [Example 133, Phenyl 5-{1-[(4-hydroxyphenyl)(phenyl)carbamoyl]-5,6,7,8-tetrahydroindolizin-3-yl}-6-[(3R)-3-methyl-1,2,3,4-tetrahydroisoquinoline-2-carbonyl]-2,3-dihydro-1H-isoindole-2-carboxylate]
- IC50 (Bcl-2 protein): 7 nM
- IC50 [1]: 8.2 nM

SMILES: CNC(=O)N1CCc2cc(-c3cc(C(=O)N(C)c4ccc(O)cc4)c4n3CCCC4)c(C(=O)N3Cc4ccccc4C[C@H]3C)cc2C1 [Example 79, 6-{1-[(4-Hydroxyphenyl)(methyl)carbamoyl]-5,6,7,8-tetrahydroindolizin-3-yl}-N-methyl-7-[(3R)-3-methyl-1,2,3,4-tetrahydroisoquinoline-2-carbonyl]-1,2,3,4-tetrahydroisoquinoline-2-carboxamide]
- IC50 (Bcl-2 protein): 5.6 nM
- IC50 [1]: > 150 nM

SMILES: CN(C(=O)c1cc(-c2cc3c(cc2C(=O)N2Cc4ccccc4C[C@H]2CN2CCOCC2)CNC3)n2c1CCCC2)c1ccc(O)cc1 [Example 7, N-(4-Hydroxyphenyl)-N-methyl-3-{6-[(3S)-3-(morpholin-4-ylmethyl)-1,2,3,4-tetrahydroisoquinoline-2-carbonyl]-2,3-dihydro-1H-isoindol-5-yl}-5,6,7,8-tetrahydroindolizine-1-carboxamide; dihydrochloride salt]
- inhibition at 3.3 µM (Bcl-2 protein; partial inhibitor, concentration of test compound 3.3 μM, read-out: percentage fluorescence polarisation inhibition (Bcl-2 FP)): 72%
- IC50 [1]: 1080 nM

SMILES: C[C@@H]1Cc2ccccc2CN1C(=O)c1cc2c(cc1-c1cc(C(=O)N(C)c3ccc(O)cc3)c3n1CCCC3)CCN(C(=O)Cc1ccccc1)C2 [Example 36, N-(4-Hydroxyphenyl)-N-methyl-3-{7-[(3R)-3-methyl-1,2,3,4-tetrahydroisoquinoline-2-carbonyl]-2-(2-phenylacetyl)-1,2,3,4-tetrahydroisoquinolin-6-yl}-5,6,7,8-tetrahydroindolizine-1-carboxamide]
- IC50 (Bcl-2 protein): 4.8 nM
- IC50 [1]: 6.2 nM

SMILES: C[C@@H]1Cc2ccccc2CN1C(=O)c1cc2c(cc1-c1cc(C(=O)N(C)c3ccc(O)cc3)c3n1CCCC3)CCN(C(=O)Oc1ccc(CCC(=O)N(C)C)cc1)C2 [Example 155, 4-[2-(Dimethylcarbamoyl)ethyl]phenyl 6-{1-[(4-hydroxyphenyl)(methyl)carbamoyl]-5,6,7,8-tetrahydroindolizin-3-yl}-7-[(3R)-3-methyl-1,2,3,4-tetrahydroisoquinoline-2-carbonyl]-1,2,3,4-tetrahydroisoquinoline-2-carboxylate]
- IC50 (Bcl-2 protein): 3.2 nM
- IC50 [1]: 2.9 nM

SMILES: Cc1c(C(=O)N(C)c2ccccc2)cc(-c2cc3c(cc2C(=O)N2Cc4ccccc4C[C@H]2CN2CCOCC2)CN(C(=O)Cc2ccccc2)CC3)n1C [Example 117, N,1,2-trimethyl-5-{7-[(3S)-3-(morpholin-4-ylmethyl)-1,2,3,4-tetrahydroisoquinoline-2-carbonyl]-2-(2-phenylacetyl)-1,2,3,4-tetrahydroisoquinolin-6-yl}-N-phenyl-1H-pyrrole-3-carboxamide]
- IC50 (Bcl-2 protein): 2.5 nM
- IC50 [1]: 39 nM

SMILES: Cc1c(C(=O)N(C)c2ccc(O)cc2)cc(-c2cc3c(cc2C(=O)N2Cc4ccccc4C[C@H]2CN2CCOCC2)CN(C(=O)Nc2ccccc2)CC3)n1C [Example 245, 6-{4-[(4-Hydroxyphenyl)(methyl)carbamoyl]-1,5-dimethyl-1H-pyrrol-2-yl}-7-[(3S)-3-(morpholin-4-ylmethyl)-1,2,3,4-tetrahydroisoquinoline-2-carbonyl]-N-phenyl-1,2,3,4-tetrahydroisoquinoline-2-carboxamide]
- IC50 (Bcl-2 protein): 4.2 nM
- IC50 [1]: 92 nM

SMILES: C[C@@H]1Cc2ccccc2CN1C(=O)c1cc2c(cc1-c1cc(C(=O)N(C)c3ccc(O)cc3)c3n1CCCC3)CCN(C(=O)Cc1ccc(OCCN(C)C)cc1)C2 [Example 154, 3-[2-(2-{4-[2-(Dimethylamino)ethoxy]phenyl}acetyl)-7-[(3R)-3-methyl-1,2,3,4-tetrahydroisoquinoline-2-carbonyl]-1,2,3,4-tetrahydroisoquinolin-6-yl]-N-(4-hydroxyphenyl)-N-methyl-5,6,7,8-tetrahydroindolizine-1-carboxamide]
- IC50 (Bcl-2 protein): 3.9 nM
- IC50 [1]: 5.9 nM
